These results are taken from US20260242390A1, “TOTAL SYNTHESES OF PORTIMINE A AND ANALOGUES THEREOF AS SMALL MOLECULE MODULATORS OF NMD3” (priority 2023, published 2026).

One series has as its system MCF-7. The series is described as follows: Broad cell line profiling, MCF-7. It counts as cell-based. Conditions: Homo sapiens, MCF7; MCF-7, Breast Adenocarcinoma; read-out: PA IC50. From the text:
(§1) • A panel of human and mouse cancer cell types used to assess the breadth of PA activity, including multiple therapy resistant metastatic mesenchymal tumor cell lines and primary glioblastoma patient-derived metastatic stem/tumor initiating cell populations.

In another series the test system is LNCaP. The series is described as follows: Broad cell line profiling, LNCaP. The series is classed as cell-based. The following applies: Homo sapiens, Prostate Carcinoma, read-out: PA IC50.
Source text: as §1

The next series deals with LN229. As to the kind of experiment: Broad cell line profiling, LN229. The series is classed as cell-based. The following applies: Homo sapiens, LN-229; LN229, Glioblastoma; read-out: PA IC50.
Source text: as §1

A further series has as its system MC38. As to the kind of experiment: Broad cell line profiling, MC38. The series is classed as cell-based. Conditions: MC-38; MC38, Mouse Colon Carcinoma; read-out: PA IC50.
Source text: as §1

The subject of a further series is Jurkat cells. The series is described as follows: Cell cycle analysis, propidium iodide flow cytometry. The series is classed as cell-based, human. The following applies: for G2M/sub-G1 (mostly apoptotic cells) / S phase entry: Jurkat cells, 10 nM treatment, 24 hr. How it is done:
FIG. 2. […] Cell cycle analysis in Jurkat cells. Jurkat cells were treated with 10 nM of indicated compounds for 24 hours, and propodium iodide was used to identify different stages of cells by flow cytometry.
FIG. 6. Portimine A inhibits S phase entry in Jurkat cells. Portimine A downregulates NMD3 at protein level but upregulates in mRNA level in cells, as well as some essential apoptosis proteins. […] Protein degradation of p53, Mcl1, Bid, Bim, Noxa can be rescued by MG132 or Epoxomicin. (B) NMD3 mRNA increased after PA treatment, but not ePA control compound. Jurkat cells were treated with indicated compounds for 24 hr; Cells were then fixed and perform Propidium Iodide staining.
• 1) Portimine A and its functional analogs show stereo-selective acute toxicity in cancer cells (FIG. 1). […] (B) Structure of portimine related analogs: phenyl-portimine A (Ph-PA, 36) and epi-portimine A (ePA, 38). Structure of fully functionalized portimine A-based epimeric probe pair: portimine A-diazirine-alkyne (PA-DA, 35-2) and epi-portimine A-diazirine-alkyne (ePA-DA, 35-1). (C) Cell viability analysis of portimine A and analogs. Jurkat cells were treated with increasing concentrations of portimine A and analogs for 24 hours. All presented data as mean of biological replicated experiments (n=3). […] Jurkat cells were treated with portimine A or analogs for 12 hours at 10 nM. […] Structurally related negative control ePA and PB are non-toxic in all cell types in the current concentrate range. PBMCs (25k per well), Jurkat (10k per well). […] Cell cycle analysis in Jurkat cells (FIG. 2). Jurkat cells were treated with 10 nM of indicated compounds for 24 hours, and propodium iodide was used to identify different stages of cells by flow cytometry. […] (A) PA and Ph-PA show less toxic to healthy PBMCs compared to Jurkat cells. […] (B) Immunoblot of caspase-3 in Jurkat and PBMCs with indicated conditions. […] (A) Pharmacokinetic studies of mouse intraperitoneal (i.p.) and oral (p.o.) administration for portimine (n=3). […] Impact of PA [0.3 or 1 mg/kg intraperitoneally] on MC38 tumor growth in WT mice (n=6). (C) Kaplan-Myer survival curve of WT MC38 tumor-bearing mice (n=6) after treatment with PA as described in (D). Mice were euthanized when tumor area exceeded 2000 mm^3. Statistical analysis was performed using ANOVA analysis followed by multiple comparisons test, * p≤0.05. Treatment condition: Jurkat (60 M per condition); PA-DA/ePA-DA concentration: 0.5 uM, PA or ePA: 5 uM; Incubate with probe with or without competitors (PA, ePA) for 30 min; UV irradiated for 20 min. (0.5 uM PA-DA add a no-UV condition), Standard pulldown & biotin-enrichment and western blot analysis (Elute condition: 2× sample buffer+500 uM biotin, boil for 20 mins); Primary antibody NMD3 (ProteinTech, 1:150), Actin (BioRad, 1:10000). […] Chemical proteomic profiling with PA-DA in Jurkat cells (A, B, C, G) and HCC1806 cells (D, E, F, H) show NMD3 is the primary target candidate of portimine A. Volcano plot in panels A and D show protein competition in cells treated with active photoaffinity probe PA-DA (500 nM) and DMSO or the active competitor portimine A (PA, […]), dotted lines indicate threshold of fold change <4, p-value>0.05. […] (I, J) Confirmation of PA-DA engagement of NMD3 in Jurkat and HCC1806 cells. […] Treatment condition: Jurkat (5M per well). Portimine A concentration: 2 nM-1000 nM; In total treat cell for 12 hours. […] Protein degradation of p53, Mcl1, Bid, Bim, Noxa can be rescued by MG132 or Epoxomicin. […]
For orientation: Flow cytometry measures light scatter and fluorescence of single cells or particles in a stream.

The conditions of series [1]: in vivo; cited from earlier work.

For orientation: IC50 means the concentration that gives 50% inhibition. The LD50 is the dose expected to kill half of the subjects tested.

In the case of `C=CC1=C[C@@H]2[C@@H]3O[C@]4(CC[C@H](O4)C(C)C[C@@H](O)C3=O)CC(O)C3=NCC[C@@]32CC1` (stereo partly shown) [PA, portimine A], the IC50 with MCF-7 worked out at 0.77 nM; with LNCaP, 1.7 nM; in the series on LN229 it was 1.1 nM; in the series on MC38, 0.55 nM. For the same compound, in the series with Jurkat cells (10 nM, 24 hours), the “cell cycle arrest in Jurkat cells” value was “triggers cell cycle arrest”. Also, the “G2M/sub-G1 (mostly apoptotic cells)” value with Jurkat cells is recorded as “does not affect”. Besides, the S phase entry entry in the series with Jurkat cells was “inhibited”. In addition, the LD50 in series [1] is 1.57 mg/kg.
In the case of `C#CCCC1(CCNC(=O)c2ccc(C3=C[C@@H]4[C@@H]5O[C@]6(CC[C@H](O6)C(C)C[C@@H](O)C5=O)CC(O)C5=NCC[C@@]54CC3)cc2)N=N1` (stereo partly shown) [PA-DA, portimine A-diazirine-alkyne], in the series with Jurkat cells, the “G2M/sub-G1 (mostly apoptotic cells)” value is “does not affect” and the S phase entry entry was “inhibited”.
